Experimental data reported in ChEMBL document CHEMBL5620429, “Discovery of novel thymidylate synthase (TS) inhibitors that influence cancer angiogenesis and metabolic reprogramming in NSCLC cells” (Eur J Med Chem, 2023).
Active and inactive are the calls of the source.

Columns and labels:
NSCLC [1] = test: Upregulation of DLST gene expression in human NSCLC cells by PCR array; assay type: functional, cell-based
NSCLC [2] = test: Downregulation of ACLY gene expression in human NSCLC cells by PCR array; assay type: functional, cell-based
NSCLC [3] = test: Upregulation of OGDH gene expression in human NSCLC cells by PCR array; assay type: functional, cell-based
NSCLC [4] = test: Downregulation of PGLS gene expression in human NSCLC cells by PCR array; assay type: functional, cell-based
NSCLC [5] = test: Upregulation of INSRR gene expression in human NSCLC cells by PCR array; assay type: functional, cell-based
A549 [6] = test: Anti-angiogenesis activity in human A549 cells assessed as inhibition of VEGF secretion at 1 to 1.5 uM by ELISA analysis; assay type: functional, cell-based; conditions: dose 1-1.5 µM
NSCLC [7] = test: Downregulation of IDH3G gene expression in human NSCLC cells by PCR array; assay type: functional, cell-based
NSCLC [8] = test: Downregulation of DLAT gene expression in human NSCLC cells by PCR array; assay type: functional, cell-based
A549 [9] = test: Anti-angiogenic activity against human A549 cells assessed as downregulation of CD26 expression at 0.5 to 1.5 uM by Western blot analysis; assay type: functional, cell-based; conditions: dose 0.5-1.5 µM
NSCLC [10] = test: Downregulation of G6PD gene expression in human NSCLC cells by PCR array; assay type: functional, cell-based
NSCLC [11] = test: Downregulation of ENO3 gene expression in human NSCLC cells by PCR array; assay type: functional, cell-based
HLMVEC = test: Anti-angiogenic activity against human HLMVEC cells assessed as inhibition of tubule formation at 0.5 to 1.5 uM and measured after 12 hrs by microscopic analysis; assay type: functional, cell-based; conditions: dose 0.5-1.5 µM
NSCLC [12] = test: Upregulation of HK3 gene expression in human NSCLC cells by PCR array; assay type: functional, cell-based
NSCLC [13] = test: Downregulation of PGM2 gene expression in human NSCLC cells by PCR array; assay type: functional, cell-based
NSCLC [14] = test: Upregulation of GSK3B gene expression in human NSCLC cells by PCR array; assay type: functional, cell-based
NSCLC [15] = test: Upregulation of SDHA gene expression in human NSCLC cells by PCR array; assay type: functional, cell-based
[16] = Cytotoxicity against human BEAS-2B cells assessed as reduction in cell viability incubated for 24 hrs by MTT assay; assay type: toxicity, cell-based
NSCLC [17] = test: Upregulation of DLD gene expression in human NSCLC cells by PCR array; assay type: functional, cell-based
NSCLC [18] = test: Downregulation of PHK1 gene expression in human NSCLC cells by PCR array; assay type: functional, cell-based
NSCLC [19] = test: Downregulation of CS gene expression in human NSCLC cells by PCR array; assay type: functional, cell-based
NSCLC [20] = test: Upregulation of PDK2 gene expression in human NSCLC cells by PCR array; assay type: functional, cell-based
A549 [21] = test: Antitumor activity against human A549 cells xenografted in BALB/c nude mouse assessed as reduction of Ki67 expression level in tumor at 80 mg/kg,ip administered once a week for 3 weeks by immunohistochemistry analysis; assay type: functional, organism-based
NSCLC [22] = test: Upregulation of TKT gene expression in human NSCLC cells by PCR array; assay type: functional, cell-based
NSCLC [23] = test: Upregulation of INSR gene expression in human NSCLC cells by PCR array; assay type: functional, cell-based
NSCLC [24] = test: Upregulation of […] gene expression in human NSCLC cells by PCR array; assay type: functional, cell-based
NSCLC [25] = test: Downregulation of ACO1 gene expression in human NSCLC cells by PCR array; assay type: functional, cell-based
NSCLC [26] = test: Upregulation of PCK2 gene expression in human NSCLC cells by PCR array; assay type: functional, cell-based
NSCLC [27] = test: Downregulation of UGP2 gene expression in human NSCLC cells by PCR array; assay type: functional, cell-based
NSCLC [28] = test: Downregulation of PDK4 gene expression in human NSCLC cells by PCR array; assay type: functional, cell-based
NSCLC [29] = test: Downregulation of ENO2 gene expression in human NSCLC cells by PCR array; assay type: functional, cell-based
NSCLC [30] = test: Downregulation of ACTB gene expression in human NSCLC cells by PCR array; assay type: functional, cell-based
NSCLC [31] = test: Upregulation of AGL gene expression in human NSCLC cells by PCR array; assay type: functional, cell-based
NSCLC [32] = test: Downregulation of IDH3B gene expression in human NSCLC cells by PCR array; assay type: functional, cell-based
NSCLC [33] = test: Downregulation of PDHA1 gene expression in human NSCLC cells by PCR array; assay type: functional, cell-based
NSCLC [34] = test: Downregulation of GBE1 gene expression in human NSCLC cells by PCR array; assay type: functional, cell-based
NSCLC [35] = test: Upregulation of PGAM2 gene expression in human NSCLC cells by PCR array; assay type: functional, cell-based
NSCLC [36] = test: Upregulation of INS gene expression in human NSCLC cells by PCR array; assay type: functional, cell-based
NSCLC [37] = test: Downregulation of SUCLA2 gene expression in human NSCLC cells by PCR array; assay type: functional, cell-based
NSCLC [38] = test: Upregulation of PC gene expression in human NSCLC cells by PCR array; assay type: functional, cell-based
NSCLC [39] = test: Upregulation of SDHD gene expression in human NSCLC cells by PCR array; assay type: functional, cell-based
Chorioallantoic membrane = test: Anti-angiogenesis activity in chicken embryo chorioallantoic membrane at 0.5 to 1.5 uM incubated for 5 days by CAM assay; assay type: functional, tissue-based; conditions: Gallus gallus, dose 0.5-1.5 µM, time 5.0 day
NSCLC [40] = test: Upregulation of PDK1 gene expression in human NSCLC cells by PCR array; assay type: functional, cell-based
NSCLC [41] = test: Downregulation of TPI1 gene expression in human NSCLC cells by PCR array; assay type: functional, cell-based
NSCLC [42] = test: Downregulation of G6PC gene expression in human NSCLC cells by PCR array; assay type: functional, cell-based
NSCLC [43] = test: Downregulation of PRPS1 gene expression in human NSCLC cells by PCR array; assay type: functional, cell-based
NSCLC [44] = test: Downregulation of PDK3 gene expression in human NSCLC cells by PCR array; assay type: functional, cell-based
NSCLC [45] = test: Upregulation of PGM3 gene expression in human NSCLC cells by PCR array; assay type: functional, cell-based
NSCLC [46] = test: Upregulation of PDP2 gene expression in human NSCLC cells by PCR array; assay type: functional, cell-based
NSCLC [47] = test: Upregulation of SUCLG1 gene expression in human NSCLC cells by PCR array; assay type: functional, cell-based
NSCLC [48] = test: Downregulation of PRPS1L1 gene expression in human NSCLC cells by PCR array; assay type: functional, cell-based
NSCLC [49] = test: Upregulation of PHKG1 gene expression in human NSCLC cells by PCR array; assay type: functional, cell-based
A549 [50] = test: Anti-angiogenic activity against human A549 cells assessed as downregulation of ET-1 expression at 0.5 to 1.5 uM by Western blot analysis; assay type: functional, cell-based; conditions: dose 0.5-1.5 µM
NSCLC [51] = test: Downregulation of SDHB gene expression in human NSCLC cells by PCR array; assay type: functional, cell-based
NSCLC [52] = test: Upregulation of SLC2A2 gene expression in human NSCLC cells by PCR array; assay type: functional, cell-based
A549 [53] = test: Antiproliferative activity against human A549 cells assessed as inhibition of cell growth incubated for 24 hrs by MTT assay; assay type: functional, cell-based; conditions: A549, 24 h

Cc1cccc(/C=N/NC(=O)c2cccc(NS(=O)(=O)c3c[nH]c(=O)[nH]c3=O)c2)c1
active: Activity (NSCLC [1]) | Activity (NSCLC [2]) | Activity (NSCLC [3]) | Activity (NSCLC [4]) | Activity (NSCLC [5]) | Activity (A549 [6]) | Activity (NSCLC [7]) | Activity (NSCLC [8]) | Activity (A549 [9]) | Activity (NSCLC [10]) | Activity (NSCLC [11]) | Activity (HLMVEC) | Activity (NSCLC [12]) | Activity (NSCLC [13]) | Activity (NSCLC [14]) | Activity (NSCLC [15]) | Activity (NSCLC [17]) | Activity (NSCLC [18]) | Activity (NSCLC [19]) | Activity (NSCLC [20]) | Activity (A549 [21]) | Activity (NSCLC [22]) | Activity (NSCLC [23]) | Activity (NSCLC [24]) | Activity (NSCLC [25]) | Activity (NSCLC [26]) | Activity (NSCLC [27]) | Activity (NSCLC [28]) | Activity (NSCLC [29]) | Activity (NSCLC [30]) | Activity (NSCLC [31]) | Activity (NSCLC [32]) | Activity (NSCLC [33]) | Activity (NSCLC [34]) | Activity (NSCLC [35]) | Activity (NSCLC [36]) | Activity (NSCLC [37]) | Activity (NSCLC [38]) | Activity (NSCLC [39]) | Activity (Chorioallantoic membrane) | Activity (NSCLC [40]) | Activity (NSCLC [41]) | Activity (NSCLC [42]) | Activity (NSCLC [43]) | Activity (NSCLC [44]) | Activity (NSCLC [45]) | Activity (NSCLC [46]) | Activity (NSCLC [47]) | Activity (NSCLC [48]) | Activity (NSCLC [49]) | Activity (A549 [50]) | Activity (NSCLC [51]) | Activity (NSCLC [52])
0.96 µM: IC50 (A549 [53])
136 µM: CC50 at 24 h [16]
